Where “and” joins values, the source holds several entries; their conditions need not be identical. Equal entries are not always repeated.
Legend:
hBD2 [1] = experiment: Qualitative RT-PCR of hBD2 expression, 1st step of the screening method; format: cell-based; conditions: normal human keratinocytes, 16 h
Protocol: (§1) A 1% concentration of the actives is tested on normal human keratinocytes, as a monolayer, on 96-well culture plates, in a specific medium enriched with calcium and free of serum (final concentration 1.7 mM).
(§2) At 80% confluence, cells are contacted with the actives (1 active per well) for 16 h. An untreated control and 2 positive controls (TNFα 100 ng/mL for hBD2 and IFNγ 100 ng/mL for hBD3) are set up in parallel on the same culture plate.
(§3) After 16 h, the supernatants are collected and cells are dry frozen at −80° C. after rinsing in PBS.
(§4) Total RNA are extracted using a 96-well extraction kit on silica columns and assayed using a 96-well spectrophotometer at 260 and 280 nm. RNA are diluted to 5 ng/mL.
(§5) Qualitative one-step RT-PCR is performed on 50 ng of initial RNA in 96 wells, on actin, hBD2 and hBD3. The primers are used at a concentration of 0.5 μM and arc taken from the literature:—hBD2: sense: 5′-[…]-3′; hBD2 antisense 5′-[…]-3′ (Harder J. et al., A peptide antibiotic from human skin. Nature 1997; 387 : 861); hBD3 sense: 5′-[…]-3′; hBD3 antisense: 5′-[…]-3′; actin sense: 5′-[…]-3′; actin antisense: 5′-[…]-3′ (Harder J. et al., Isolation and characterization of human β-defensin-3, a novel human inducible peptide antibiotic. J Biol Chem 2001, 276 : 5707-5713).
(§6) Samples are placed in a thermocycler and follow a common amplification program: 50° C., 30 min; 94° C., 2 min, (94° C., 30 s; 60° C., 30 s; 68° C., 30 s), 32 cycles for the defensins and 30 cycles for actin; 72° C., 10 min; 14° C., infinite.
(§7) After amplification, the products are mixed at a rate of 3 μL of actin amplification products+6 μL of hBD2 amplification products+6 μL of hBD3 amplification products. 5 μL of a mixture of charge buffer and water (⅔) are added and the final 20 μL are deposited on 2% premoulded agarose gel. The samples migrate in 30 minutes and the bands are visualised under UV in a dark room then digitally photographed.
(§8) Photos of the gels are analysed by image processing software which quantifies the intensity of the bands. As the basal level of defensin expression (untreated control) is not detectable, the intensity ratios of the hBD2/actin and hBD3/actin bands can be compared, for example with those obtained for the positive control (treated with TNFα for hBD2 and IFNγ for hBD3) and indicate any stimulation of the expression of the β-defensin in question
(§9) Since the basal level of defensin expression is generally not detectable, stimulation of hBD2 and hBD3 is expressed as a percentage of the positive controls (TNFα for hBD2 and IFNγ for hBD3). IL8 and MIP3α levels are given as pg/mL/RNA concentration (in ng/μL).

hBD3 [2] = experiment: Qualitative RT-PCR of hBD3 expression, 1st step of the screening method; format: cell-based; conditions: normal human keratinocytes, 16 h
Protocol: as §2, §3, §4, §5, §6, §7, §8, §9

IL8 [3] = experiment: ELISA of IL8 secreted into the culture medium, 1st step; format: cell-based, human; conditions: keratinocyte supernatant, 16 h
Protocol: (§10) At the end of this first step, the actives having exerted an effect on β-defensin expression are selected and the supernatants corresponding to these actives are then tested using an ELISA kit in order to determine the levels of MIP3α, IL1 and IL8 secreted into the culture medium under the effect of the actives. The levels are then referred to the RNA concentration assayed in each well in order to compare results with each other.
as §9

hBD2 [4] = experiment: Quantitative RT-PCR of hBD2 expression, 2nd step (dose-effect); format: cell-based, human; conditions: 16 h, untreated control = 100%
Protocol: (§11) The actives are then tested on 5 concentrations (from 0.001% to max viability) in quadruplicate on normal human keratinocytes as a monolayer on 96-well culture plates, in a specific medium enriched with calcium and free of serum (CaCl2 1.7 mM) (same conditions as in example 1).
as §3
(§12) Total RNA are extracted using a 96-well extraction kit on silica columns and assayed using a 96-well spectrophotometer at 260 and 280 nm. RNA are diluted to 5 ng/μL.
(§13) Quantitative RT-PCR in 96 wells on actin, hBD2 and hBD3 is initially carried out on 50 ng of RNA, using a one-step kit containing Sybrgreen, in a fluorescence thermocycler with the same primers as previously (0.5 μM). The amplification program is as follows: 50° C., 30 min; 94° C., 15 min; (94° C., 15 s; 60° C., 30 s; 72° C., 30 s)×50 cycles; 90° C., 1 min; 30° C., 1 min; 50° C. to 95° C. (10 s every ° C.); 14° C., infinite.
(§14) A study of the fusion graphs makes it possible to verify the specificity of amplified products. The fluorescence graph as a function of the number of cycles gives the C(T) value corresponding to the number of cycles needed to obtain initiation of the fluorescence signal. The more an mRNA is expressed, the lower the C(T) value. Calculation of Sgene=(½)^C(T) for each RNA takes into consideration the exponential increase in the number of copies during amplification. The Sgene hBD2/Sgene actin and Sgene hBD3/Sgene actin ratios can be compared with those of the untreated control to give the percentage stimulation produced.
(§15) Quantitative RT-PCR makes it possible to obtain a basal value for the defensin expression for untreated controls. The results are therefore expressed as a percentage of the control. IL8, IL1 and MIP3 cytokine levels are given as pg/mL/RNA concentration (in ng/μL).
(§16) In the same way as in example 2, retinoic acid and retinol were tested for their capacity to stimulate hBD2 and/or hBD3.

hBD3 [5] = experiment: Quantitative RT-PCR of hBD3 expression, 2nd step (dose-effect); format: cell-based, human; conditions: 16 h, untreated control = 100%
Protocol: as §11, §3, §12, §13, §14, §15, §16

MIP3α [6] = experiment: ELISA of MIP3α in supernatants, 2nd step; format: cell-based, human; conditions: supernatant, 16 h
Protocol: (§17) The supernatants of the actives, whose capacity to induce defensins has been confirmed, are tested using an ELISA kit in order to assay MIP3α, IL8 and IL1α levels. These assays are performed on the same supernatant (200 μL) by carrying out a series dilution (by 1.5 to assay MIP3α and IL8, then by 2 to assay IL1). The levels are then referred to the RNA concentration assayed in each well in order to compare results with each other.
as §15

IL8 [7] = experiment: ELISA of IL8 in supernatants, 2nd step; format: cell-based, human; conditions: supernatant, 16 h
Protocol: as §17, §15

IL1α = experiment: ELISA of IL1α in supernatants, 2nd step; format: cell-based, human; conditions: supernatant, 16 h
Protocol: as §17, §15

MIP3α [8] = experiment: ELISA of MIP3α secreted into the culture medium, 1st step; format: cell-based, human; conditions: 100 μg/mL; keratinocyte supernatant, 16 h
Protocol: as §10, §9

hBD2 and/or hBD3 [9] = experiment: 1st step of the screening method, overall outcome (defensin RT-PCR plus MIP3α/IL8 ELISA); format: cell-based, human; conditions: concentrations of Tables I and II
Protocol: as §1, §2, §3, §4
as §5, with “5707-5713). […]” for “5707-5713).”
Photos of the gels are analysed by image processing software which quantifies the intensity of the bands. […]

hBD2 and/or hBD3 [10] = experiment: 2nd step of the screening method, overall outcome (quantitative RT-PCR plus MIP3α/IL8/IL1α ELISA); format: cell-based, human
Protocol: The actives which best satisfied the criteria for the first step undergo a dose-effect analysis.
as §11, §3, §12, §13, §14
as §17, with “The levels are then referred to the RNA concentration assayed in each well in order to compare results with each other.” left out

Molecule: TNFα
- HBD2 expression, percentage of the positive control (TNFα) (hBD2 [1]; 100 ng/mL (positive control)): 100%
- HBD3 expression, percentage of the positive control (IFNγ) (hBD3 [2]; 100 ng/mL (positive control)): 100%
- IL8 level (IL8 [3]; 100 ng/mL (positive control)): 186 pg/mL/RNA concentration (in ng/μL) and 97 pg/mL/RNA concentration (in ng/μL)
- hBD2 expression, percentage of the control (hBD2 [4]; conc. 100 ng/mL): 1755%
- hBD3 expression, percentage of the control (hBD3 [5]; conc. 100 ng/mL): 774%
- MIP3α level (MIP3α [6]; conc. 100 ng/mL): 23.6 pg/mL/RNA concentration (in ng/μL)
- IL8 level (IL8 [7]; conc. 100 ng/mL): 175 pg/mL/RNA concentration (in ng/μL)
- IL1α level (IL1α; conc. 100 ng/mL): 21.8 pg/mL/RNA concentration (in ng/μL)

Molecule: CC/C=C\C[C@H]1C(=O)CC[C@@H]1CC(=O)O [Jasmonic Acid]
- HBD2 expression, percentage of the positive control (TNFα) (hBD2 [1]; 100 μg/mL): 7%
- HBD3 expression, percentage of the positive control (IFNγ) (hBD3 [2]; 100 μg/mL): 0%
- MIP3α level (MIP3α [8]): 6 pg/mL/RNA concentration (in ng/μL)
- IL8 level (IL8 [3]; 100 μg/mL): 25.3 pg/mL/RNA concentration (in ng/μL)
- hBD2 expression, percentage of the control (hBD2 [4]; conc. 100 μg/mL): 86%
- hBD2 expression, percentage of the control (hBD2 [4]; conc. 500 μg/mL): 134%
- hBD3 expression, percentage of the control (hBD3 [5]; conc. 100 μg/mL): 477%
- hBD3 expression, percentage of the control (hBD3 [5]; conc. 500 μg/mL): 26919%
- MIP3α level (MIP3α [6]; conc. 100 μg/mL): 4.6 pg/mL/RNA concentration (in ng/μL)
- MIP3α level (MIP3α [6]; conc. 500 μg/mL): 13.6 pg/mL/RNA concentration (in ng/μL)
- IL8 level (IL8 [7]; conc. 100 μg/mL): 37.9 pg/mL/RNA concentration (in ng/μL)
- IL8 level (IL8 [7]; conc. 500 μg/mL): 103.3 pg/mL/RNA concentration (in ng/μL)
- IL1α level (IL1α; conc. 100 μg/mL): 31.2 pg/mL/RNA concentration (in ng/μL)
- IL1α level (IL1α; conc. 500 μg/mL): 97.1 pg/mL/RNA concentration (in ng/μL)
- satisfying the criteria for the first step (in words) (hBD2 and/or hBD3 [9]): stimulate hBD2 and/or hBD3 without triggering the expression of MIP3 and IL8 cytokines
- induction of defensins 2 and/or 3 (in words) (hBD2 and/or hBD3 [10]; jasmonic acid 100 μg/mL, α-MSH as in Table III): capable of inducing defensins 2 and/or 3
- satisfying the criteria of the invention (in words) (hBD2 and/or hBD3 [10]; second step): stimulate hBD2 and/or hBD3 without triggering the expression of MIP3, IL8 or IL1 cytokines

B1: IFNγ: gamma interferon, positive control for hBD3 stimulation, 100 ng/mL (protein, UniProt P01579 24-161, looked up)
Interferon gamma: QDPYVKEAENLKKYFNAGHSDVADNGTLFLGILKNWKEESDRKIMQSQIVSFYFKLFKNFKDDQSIQKSVETIKEDMNVKFFNSNKKKRDDFEKLTNYSVTDLNVQRKAIHELIQVMAELSPAAKTGKRKRSQMLFRG
- hBD2 expression, percentage of the control (hBD2 [4]; conc. 100 ng/mL): 472%
- hBD3 expression, percentage of the control (hBD3 [5]; conc. 100 ng/mL): 4631%
- MIP3α level (MIP3α [6]; conc. 100 ng/mL): 11.6 pg/mL/RNA concentration (in ng/μL)
- IL8 level (IL8 [7]; conc. 100 ng/mL): 100.5 pg/mL/RNA concentration (in ng/μL)
- IL1α level (IL1α; conc. 100 ng/mL): 40.1 pg/mL/RNA concentration (in ng/μL)
